In brackets after ≈: the same amount, converted by molar mass.
Legend:
[1] = system: Trypanosoma brucei; assay: DNDI: Inhibition of Human African Trypanosomiasis, SBRI 427, in vitro; type: functional, organism-based; settings: Trypanosoma brucei, SBRI 427; read-out: IC50
[2] = DNDI: Cytotoxicity against L929 mouse fibroblasts, CYTO-SP, 24 hour; type: toxicity, cell-based; settings: mouse, L929 mouse fibroblasts
[3] = system: Trypanosoma brucei; assay: DNDI: Inhibition of Human African Trypanosomiasis, EATRO 110, in vitro; type: functional, organism-based
[4] = DNDI: Solubility in phosphate buffered saline at pH7.4 measured by optical density (turbidimetry) at room temperature (OD-RT); type: physicochemical; settings: pH 7.4
[5] = DNDI: half life in mouse liver microsomes at a concentration of 10uM; type: ADME, Microsome
[6] = DNDI: half life in human liver microsomes at a concentration of 10uM; type: ADME, Microsome
[7] = DNDI: Lipophilicity measured in Chromatographic hydrophobicity index (CHI) assay, pH 7.4; type: physicochemical; settings: buffer
[8] = DNDI: in vitro intrinsic clearance in mouse liver microsomes at a concentration of 10uM; type: ADME, Microsome; settings: read-out: CLint in vitro
[9] = DNDI: in vitro intrinsic clearance in human liver microsomes at a concentration of 10uM; type: ADME, Microsome
[10] = DNDI: Solubility in phosphate buffered saline at pH7.4 measured by nephelometry at room temperature (NEPH-RT); type: physicochemical; settings: pH 7.4
[11] = in vitro; settings: human
Description: DNDI: half life in human liver microsomes at a concentration of 1uM

[12] = mouse, microsomes, 1 µM
Description: DNDI: in vitro intrinsic clearance in mouse liver microsomes at a concentration of 1uM

[13] = in vitro; settings: human; remark: listed apart in the source
Description: DNDI: in vitro intrinsic clearance in human liver microsomes at a concentration of 1uM

[14] = in vitro; settings: mouse
Description: DNDI: half life in mouse liver microsomes at a concentration of 1uM

[15] = system: Trypanosoma brucei; assay: (§1) DNDI: Mean survival time in days (MSD) of mice after intraperitoneal injection of Human African Trypanosomiasis (HAT), EATRO 110, in vivo at 20 mg/kg/day for 4 days.; type: functional, Mus musculus
[16] = DNDI: Cytotoxicity against L929 mouse fibroblasts, 72 hour.; type: toxicity, cell-based; settings: mouse, L929 mouse fibroblasts
[17] = system: Trypanosoma brucei; assay: as §1; type: functional, Mus musculus; remark: listed apart in the source
[18] = system: Trypanosoma cruzi; assay: DNDI: Inhibition of Chagas Disease parasite Trypanosoma cruzi (Tulahuen LacZ, Clone C4), in vitro.; type: functional, organism-based
[19] = system: Trypanosoma brucei rhodesiense; assay: DNDI: Inhibition of Human African Trypanosomiasis (HAT), STIB 900, in vitro; type: functional, organism-based
[20] = system: Leishmania donovani; assay: DNDI: Inhibition of formation of Leishmania donovani (strain MHOM/ET/67/L82) axenic amastigotes, in vitro.; type: functional, organism-based
[21] = system: Plasmodium falciparum; assay: DNDI: Inhibition of the malaria parasite Plasmodium falciparum, in vitro; type: functional, organism-based; settings: K1
[22] = DNDI: Cytotoxicity against L-6 rat myoblasts from skeletal muscle cells; type: toxicity, cell-based, L6; settings: L-6 rat skeletal muscle myoblasts
[23] = system: Trypanosoma brucei; assay: DNDI: Inhibition of Human African Trypanosomiasis, Cross 22, in vitro; type: functional, organism-based
[24] = DNDI: % of compound remaining in mouse S9 microsomes at a concentration of 1uM after 60 mins; type: ADME, subcellular, Liver, S9 fraction
[25] = DNDI: % of compound remaining in rat S9 microsomes at a concentration of 1uM; type: ADME, subcellular, Liver, S9 fraction
[26] = liver microsomes, CLint in vitro

Row | Structure (SMILES) | IC50 [1] [µg/mL] | IC50 at 24 h [2] [µg/mL] | IC50 [3] [µg/mL] | chromatographic logD [7] | solubility kinetic [10] [µM] | CLint in vitro [12] [µL/min/mg] | half-life at 1 µM ([14]; liver microsomes, t (1 / 2)) [min] | IC50 at 72 h [16] [µg/mL] | MSD [17] [days] | also measured
1 | O/N=C(\NC1CCCCC1)c1cccnc1Oc1ccccc1Br | 1.13 (≈ 2.9 µM) | > 50 | 1.56 (≈ 4 µM) | – | – | – | – | – | – | –
2 | CCc1ccccc1Oc1ncccc1/C(=N\O)NC1CCCCC1 | 0.79 (≈ 2.33 µM) | > 50 | 2.15 (≈ 6.33 µM) | 4.31 | – | – | – | – | – | solubility kinetic [4]: 6.3 µM (≈ 2.14 µg/mL); half-life at 10 µM [5]: 21 min; half-life at 10 µM [6]: 106 min; microsomal CLint at 10 µM [8]: 140 µL/min/mg; CLint in vitro [9]: 27 µL/min/mg
3 | O/N=C(/NC1CCCCC1)c1cccc2ccccc12 | 3.96 (≈ 14.8 µM) | > 50 | – | 4.43 | 50 (≈ 13.4 µg/mL) | 168 | 5 | – | – | half-life at 1 µM ([11]; liver microsomes, t (1 / 2)): 69 min; microsomal CLint at 1 µM [13, 26]: 12 µL/min/mg
4 | CCCCCC(C)NCc1coc(-c2ccccc2Oc2ccccc2)n1 (centres undefined) | 2.98 (≈ 8.18 µM) | – | – | – | – | 220 | 4 | 6.3 (≈ 17.3 µM) | 4 | MSD [15]: 5 days
5 | CCCCCOc1ccc(-c2nc(CN[C@@H]3C[C@@H]4C[C@H]([C@H]3C)C4(C)C)co2)cc1 | 0.12 (≈ 0.303 µM) | 38.9 (≈ 98.1 µM) | – | 6.5 | 2 (≈ 0.793 µg/mL) | 60 | 14 | < 3.13 | – | MSD [15]: 4.5 days
6 | CC1CC(NCc2coc(-c3ccc(OC(C)C)cc3)n2)CC(C)(C)C1 (centres undefined) | 0.79 (≈ 2.22 µM) | – | – | – | – | 26 | 33 | 1.51 (≈ 4.24 µM) | 4 | MSD [15]: 3.5 days
7 | O/N=C(/NC1CCCCC1)c1cccnc1Oc1ccccc1F | 0.58 (≈ 1.76 µM) | > 50 | 1.5 (≈ 4.55 µM) | 3.99 | – | – | – | > 10 | – | IC50 [18]: > 30 µg/mL; IC50 [19]: 20.8 µg/mL (≈ 63.1 µM); solubility kinetic [4]: 50 µM (≈ 16.5 µg/mL); IC50 [20]: 19.9 µg/mL (≈ 60.5 µM); IC50 [21]: > 5 µg/mL; half-life at 10 µM [5]: 10 min; half-life at 10 µM [6]: 185 min; microsomal CLint at 10 µM [8]: 275 µL/min/mg; IC50 [22]: 54.3 µg/mL (≈ 165 µM); CLint in vitro [9]: 16 µL/min/mg
8 | CSc1ccccc1Oc1ncccc1/C(=N\O)NC1CCCCC1 | 0.62 (≈ 1.73 µM) | > 50 | 1.34 (≈ 3.75 µM) | – | – | – | – | – | – | –
9 | COc1cccc(/C(=N/O)NC2CCCCC2)c1 | 0.57 (≈ 2.3 µM) | > 50 | – | 3.84 | – | – | – | > 10 | 4 | IC50 [18]: > 30 µg/mL; IC50 [19]: 14.4 µg/mL (≈ 58 µM); solubility kinetic [4]: 100 µM (≈ 24.8 µg/mL); IC50 [20]: 34 µg/mL (≈ 137 µM); IC50 [21]: 4.4 µg/mL (≈ 17.7 µM); half-life at 10 µM [5]: 7 min; half-life at 10 µM [6]: 219 min; microsomal CLint at 10 µM [8]: 421 µL/min/mg; IC50 [22]: 63.3 µg/mL (≈ 255 µM); CLint in vitro [9]: 13 µL/min/mg
10 | CCCCc1ccc(-c2nc(CNC[C@@H]3CC[C@H]4C[C@@H]3C4(C)C)co2)cc1 | – | > 50 | – | 6.68 | 3 (≈ 1.1 µg/mL) | – | – | > 10 | 3.5 | IC50 [18]: 2.61 µg/mL (≈ 7.12 µM); IC50 [19]: 0.361 µg/mL (≈ 0.985 µM); half-life at 1 µM ([11]; liver microsomes, t (1 / 2)): 39 min; microsomal CLint at 1 µM [13, 26]: 22 µL/min/mg; IC50 [20]: 4.84 µg/mL (≈ 13.2 µM); IC50 [21]: 0.389 µg/mL (≈ 1.06 µM); IC50 [23]: 0.31 µg/mL (≈ 0.846 µM); IC50 [22]: 2.89 µg/mL (≈ 7.88 µM)
11 | CCCCCOc1ccc(-c2nc(CNC(C)CCCCC)co2)cc1 (centres undefined) | 0.33 (≈ 0.92 µM) | 32.4 (≈ 90.4 µM) | – | – | – | 13 | 68 | < 3.13 | – | remaining at 1 h, 1 µM [24]: 49.7%; remaining at 1 µM [25]: 0.555%
12 | O/N=C(\NC1CCCCC1)c1cccnc1 | > 5 | 50 (≈ 228 µM) | – | 2.82 | > 200 | 12 | – | – | – | half-life at 1 µM ([11]; microsomes): 277 min; microsomal CLint at 1 µM ([13]; microsomes): 3 µL/min/mg; half-life at 1 µM ([14]; microsomes): 70 min
13 | O/N=C(\NC1CCCCC1)c1cc(F)cc(F)c1 | > 5 | > 50 | – | 4.26 | > 200 | 35 | 25 | – | – | half-life at 1 µM ([11]; liver microsomes, t (1 / 2)): 61 min; microsomal CLint at 1 µM [13, 26]: 14 µL/min/mg

Reference: ChEMBL document CHEMBL1857833, “Screening and optimization of specific chemical series against human African Trypanosomiasis (HAT)”
